Reference: ChEMBL document CHEMBL1201862, “PubChem BioAssay data set” (2004)
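48-hour exposure; five concentrations; linearly interpolated endpoints. At the GI50, growth is halved.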 Active and inactive are the calls of the source. Rule as the data show it: active = GI50 up to about 1.1 µM and inactive = higher.

Assays:
Test in all cases: NCI tumour cell line growth inhibition, 48 h
[1] = tested on: BT-549
[2] = tested on: CAKI-1
[3] = tested on: CCRF-CEM
[4] = tested on: COLO 205
[5] = tested on: DU-145
[6] = tested on: HL-60
[7] = tested on: HOP-62
[8] = tested on: HT-29
[9] = tested on: IGROV-1
[10] = tested on: MCF7
[11] = tested on: MDA-MB-231
[12] = tested on: NCI-H460
[13] = tested on: NCI-H522
[14] = tested on: OVCAR-5
[15] = tested on: PC-3
[16] = tested on: SF-539
[17] = tested on: SW-620
[18] = tested on: UO-31
[19] = tested on: HOP-92
[20] = tested on: MDA-MB-435

Measured: GI50

CC(C)c1ccc2nc3ccc(C(=O)NCCN(C)C)cn3c(=O)c2c1
inactive: [1] 14.2 µM | [2] 23.1 µM | [3] 14.9 µM | [4] 16.2 µM | [5] 34.7 µM | [6] 16.3 µM | [7] 15.3 µM | [8] 7.74 µM | [9] 30.8 µM | [10] 16.3 µM | [11] 15 µM | [12] 17.6 µM | [13] 15.3 µM | [14] 14.7 µM | [15] 13.6 µM | [16] 14.9 µM | [17] 14.7 µM | [18] 14.6 µM

Cc1cc2c(C)cc(=O)[nH]c2cc1N
inactive: [1] > 100 µM | [2] > 100 µM | [3] > 100 µM | [4] 60.1 µM | [5] > 100 µM | [7] > 100 µM | [19] > 100 µM | [8] 81.1 µM | [9] > 100 µM | [10] 67.5 µM | [11] 46.9 µM | [20] > 100 µM | [12] 65.5 µM | [14] > 100 µM | [15] 34.8 µM | [16] > 100 µM | [17] > 100 µM | [18] > 100 µM

CC1(C)N[PH]2(Nc3ccccc3O2)OC1=O
inactive: [1] 18.6 µM | [2] 66.2 µM | [3] 41.2 µM | [4] 17.8 µM | [5] > 100 µM | [6] 44.3 µM | [7] > 100 µM | [8] > 100 µM | [9] > 100 µM | [10] 22.8 µM | [11] > 100 µM | [20] 16.4 µM | [12] 45.4 µM | [14] > 100 µM | [15] 41.1 µM | [16] 66.5 µM | [17] 42.7 µM | [18] 96.4 µM

COC(=O)c1ccc(Oc2nc3ccccc3nc2-c2cccs2)cc1
inactive: [1] 45.7 µM | [2] 43.4 µM | [3] > 100 µM | [4] > 100 µM | [5] > 100 µM | [6] > 100 µM | [7] 11.9 µM | [8] > 100 µM | [9] 39.3 µM | [10] 3.16 µM | [11] 21.3 µM | [20] > 100 µM | [12] 33.7 µM | [13] 76 µM | [14] > 100 µM | [15] 44.9 µM | [16] 5.71 µM | [17] 46.8 µM | [18] > 100 µM

O=S(=O)(O)c1c(Cl)cc(O)c2ncccc12
inactive: [1] > 100 µM | [2] > 100 µM | [3] > 100 µM | [4] > 100 µM | [5] > 100 µM | [7] > 100 µM | [19] > 100 µM | [8] > 100 µM | [9] > 100 µM | [10] > 100 µM | [11] > 100 µM | [20] > 100 µM | [12] > 100 µM | [14] > 100 µM | [15] > 100 µM | [16] > 100 µM | [17] > 100 µM | [18] > 100 µM

CNc1ccccc1S(=O)(=O)c1ccccc1[N+](=O)[O-]
inactive: [1] 23.6 µM | [3] 43.5 µM | [4] > 100 µM | [5] > 100 µM | [6] 40 µM | [7] > 100 µM | [8] 93.8 µM | [9] > 100 µM | [10] 85.1 µM | [11] > 100 µM | [20] 38.2 µM | [12] 58.7 µM | [13] 26 µM | [14] > 100 µM | [15] 52.4 µM | [16] > 100 µM | [17] > 100 µM | [18] 43.6 µM

O=C(NN1C(=O)C(Cl)C1c1ccc(Cl)cc1)c1c(Cl)c(Cl)c(Cl)c(Cl)c1-c1nc2ccccc2[nH]1 (configuration not stated)
inactive: [1] 24.4 µM | [2] 3.73 µM | [3] 8.39 µM | [4] 18.3 µM | [5] 16.4 µM | [6] 25.4 µM | [7] 40.2 µM | [19] 13.5 µM | [8] 25.2 µM | [9] 3.61 µM | [10] 12.7 µM | [20] 20.1 µM | [12] 16.7 µM | [13] 13.8 µM | [14] 37.2 µM | [15] 25.6 µM | [16] 32.4 µM | [17] 23.1 µM | [18] 22.6 µM

O=C1C(Cl)C2(CC(/C=C/c3ccccc3O)=NN2c2cccc(S(=O)(=O)O)c2)N1c1nc2ccccc2s1 (configuration not stated)
inactive: [1] 18.1 µM | [3] 7.24 µM | [4] 18.9 µM | [6] 3.54 µM | [19] 19.7 µM | [8] 18.6 µM | [9] 14.9 µM | [10] 15.4 µM | [11] 22.5 µM | [20] 15.1 µM | [12] 15.1 µM | [13] 3.57 µM | [14] 22.3 µM | [15] 24.8 µM | [16] 16.9 µM | [17] 17.4 µM | [18] 13.1 µM

COc1ccc(-c2nc(N(C)C)c3ccccc3n2)cc1
inactive: [1] 14.2 µM | [2] 14 µM | [4] 10.1 µM | [6] 12.4 µM | [7] 16.6 µM | [19] 12.4 µM | [8] 5.51 µM | [9] 9.55 µM | [10] 11 µM | [11] 28.4 µM | [20] 15.3 µM | [12] 10.8 µM | [13] 7.96 µM | [14] 14 µM | [15] 24 µM | [16] 20.4 µM | [17] 9.48 µM | [18] 3.36 µM

Cn1c2ccccc2n2c3ccccc3c(=S)c(C#N)c12
inactive: [1] > 100 µM | [2] > 100 µM | [3] > 100 µM | [4] > 10 µM | [5] > 100 µM | [6] > 100 µM | [7] 53.1 µM | [8] > 100 µM | [9] > 100 µM | [10] > 100 µM | [20] > 100 µM | [12] > 100 µM | [13] > 100 µM | [14] > 100 µM | [15] > 100 µM | [16] > 100 µM | [17] > 100 µM | [18] > 100 µM

Oc1cccc(-c2cc(=S)ss2)c1
inactive: [1] 16.7 µM | [2] 18.2 µM | [4] 18.4 µM | [6] 15 µM | [7] 17.6 µM | [19] 13.9 µM | [8] 24.7 µM | [9] 14.4 µM | [10] 12.8 µM | [11] 14.3 µM | [20] 20.5 µM | [12] 17.1 µM | [13] 6.89 µM | [14] 15.9 µM | [15] 14.4 µM | [16] 19.5 µM | [17] 18.5 µM | [18] 14.3 µM

COC(=O)C(=O)C(C(=O)C(=O)Nc1ccccc1OC)c1nc2ccc([N+](=O)[O-])cc2nc1O (configuration not stated)
inactive: [1] > 100 µM | [2] > 100 µM | [3] > 100 µM | [6] > 100 µM | [7] > 100 µM | [19] > 100 µM | [8] > 100 µM | [9] 54.8 µM | [10] > 100 µM | [11] > 100 µM | [20] 35.6 µM | [12] 58.2 µM | [13] 65.2 µM | [14] > 100 µM | [15] > 100 µM | [16] > 100 µM | [17] > 100 µM | [18] 45.3 µM

Cc1ccc(S(=O)(=O)Nn2c(O)c(C#N)c(-c3ccc(Cl)cc3)c(C#N)c2=O)cc1
inactive: [1] > 100 µM | [2] > 100 µM | [3] > 100 µM | [4] > 100 µM | [6] > 100 µM | [7] > 100 µM | [19] > 100 µM | [8] > 100 µM | [9] > 100 µM | [10] > 100 µM | [11] > 100 µM | [20] > 100 µM | [12] > 100 µM | [13] > 100 µM | [14] > 100 µM | [15] > 100 µM | [16] > 100 µM | [17] > 100 µM

CN(C)c1ccc(/C=C2\CCCCCC2=O)cc1
inactive: [1] 81.5 µM | [2] > 100 µM | [3] > 100 µM | [4] > 100 µM | [5] > 100 µM | [6] > 100 µM | [7] 66.7 µM | [8] > 100 µM | [9] > 100 µM | [10] > 100 µM | [11] 32.7 µM | [20] > 100 µM | [12] 31.6 µM | [14] > 100 µM | [15] 65 µM | [16] > 100 µM | [17] > 100 µM | [18] 50.6 µM

O=C(O)/C=C(/CC(=O)O)C(=O)O
inactive: [1] 21.1 µM | [2] 20.6 µM | [3] 13.6 µM | [4] 17.6 µM | [5] 19.9 µM | [6] 21 µM | [7] 16.7 µM | [8] 21.8 µM | [9] 20.9 µM | [10] 19.3 µM | [11] 21.3 µM | [20] 18.3 µM | [12] 35.2 µM | [13] 17.9 µM | [14] 38.4 µM | [15] 19.6 µM | [16] 12.3 µM | [17] 19 µM | [18] 17.2 µM
